We go through twelve compounds from patent EP0623343A1, “Ketamine analogues for the treatment of thrombocytopenia” (GENENTECH, INC., priority 1993, dated 1994).

In one test the test system is DAMI cells. Description: DAMI assay measuring endomitotic activity (polyploidization) of DAMI cells. To be noted: for DAMI: Thrombopoietic activity, concentration at which active.
In the next test the test system is CMK cells. The test can be described thus: CMK assay for thrombopoietin (TPO) induction of platelet antigen GPIIbIIIa expression. To be noted: for CMK: Thrombopoietic activity, concentration at which active; for minimal effective concentration: Homo sapiens, CMK.
The nature of test [1]: Thrombopoeitic activity in various assays (not specified further). To be noted: for thrombopoeitic activity in various assays: no activity at concentrations as high as 200 µM.
The subject of another test is C57BL6 mice. Description: Thrombopoietin (TPO) in vivo assay (Mouse Platelet Rebound Assay). To be noted: @ 2 mg/mouse/d; IP injections on days 5 and 6 after anti-platelet serum. How it is done:
Thrombopoietin (TPO) in vivo assay (Mouse Platelet Rebound Assay)
In vivo Assay for ³⁵S Determination of Platelet Production
C57BL6 mice (obtained from Charles River) were injected intraperitoneally (IP) with 1 ml goat anti-mouse platelet serum (6 amps) on day 1 to produce thrombocytopenia. On days 5 and 6, mice were given two IP injections of the factor or PBS as the control. On day 7, thirty µCi of Na₂³⁵SO₄ in 0.1 ml saline were injected intravenously and the percent ³⁵S incorporation of the injected dose into circulating platelets was measured in blood samples obtained from treated and control mice. Platelet counts and leukocyte counts were made at the same time from blood obtained from the retro-orbital sinus.

The conditions of test [2]: after 1-2 weeks treatment; patient had 37,000-58,000/µl before; cited from earlier work.
Where [3] appears, read: read-out: active at concentration in the DAMI assay.
Where [4] appears, read: read-out: active at concentration in the CMK assay.
Setting [5] is: read-out: DAMI(µM), Thrombopoietic activity, concentration at which active, 'inactive @200' given as >200.
Setting [6] is: read-out: CMK(µM), Thrombopoietic activity, concentration at which active, 'inactive @200' given as >200.
Where [7] appears, read: read-out: active / inactive at concentration in the DAMI assay.

Each structure is given as a SMILES string. Read-outs that look alike come from different tables or passages of the source.

With `NC1(c2ccccc2Cl)CCC=CC1=O` (single isomer, unassigned; (+)) [(+)-V, (+)-6-amino-6-(2-chlorophenyl)-2-cyclohexen-1-one], the “DAMI” value in the test with DAMI cells ('inactive @200' given as >200) is 12 µM. Moreover, the “active at concentration in the CMK assay” value with CMK cells is listed as 6 µm. Further, the “CMK” value in the test on CMK cells ('inactive @200' given as >200) is 6 µM.

As for `NC1(c2ccccc2Cl)CCC=CC1=O` (single isomer, unassigned; (-)) [(-)-V, (-)-6-amino-6-(2-chlorophenyl)-2-cyclohexen-1-one], the “DAMI” value in the test with DAMI cells ('inactive @200' given as >200) amounted to 12 µM. Moreover, the minimal effective concentration in the test with DAMI cells (setting [3]) and in the test with CMK cells (setting [4]) was 6 µM throughout. Besides, in the test on CMK cells ('inactive @200' given as >200), the “CMK” value turned out to be 6 µM.

Take `O=C1C=CC(=O)c2ccccc21` [1,4-naphthoquinone, reference compound]: the minimal effective concentration in the test on DAMI cells (setting [5]) was more than 200 µM; with CMK cells (setting [6]) it was less than 6 µM.

`NCC(=O)NC1(c2ccccc2Cl)CCC=CC1=O` (stereo not shown) [EXAMPLE IV, 6-(2-aminoacetyl)amino-6-(2-chlorophenyl)-2-cyclohexen-1-one]: the minimal effective concentration in the test on DAMI cells (setting [3]) and in the test with CMK cells (setting [4]) was 6 µM each time.

As to `CSCCC(=O)NC1(c2ccccc2Cl)CCC=CC1=O` (stereo not shown) [EXAMPLE V, 6-(2-chlorophenyl)-6-(3-(methylthio)propanoyl)amino-2-cyclohexen-1-one], in the test on CMK cells (setting [4]), the minimal effective concentration is 6 µM.

Consider `NC1(c2ccccc2Cl)CCCCC1=O` (stereo not shown) [IV, 2-(amino)-2-(2-chlorophenyl) cyclohexanone, reference compound], for which the minimal effective concentration with DAMI cells (setting [5]) and with CMK cells (setting [6]) was more than 200 µM in each case. Also, in test [1], the “thrombopoeitic activity in various assays” value is on record as more than 200 µM.

For `NC1(c2ccccc2Cl)CCC=CC1=O` (stereo not shown) [V, 6-amino-6-(2-chlorophenyl)-2-cyclohexen-1-one], the “DAMI” value in the test with DAMI cells ('inactive @200' given as >200) is 25 µM. In addition, the figures for the minimal effective concentration in the test on DAMI cells (setting [7]), in the test with CMK cells (setting [6]) and with CMK cells (setting [4]) were 30 µM, 6 µM and 15 µM, respectively. In the test with C57BL6 mice, the “In vivo(% ctl.@ mg/mouse/d)” value is recorded as 131 @ 2 % ctl.

Consider `CC(=O)NC1(c2ccccc2Cl)CCC=CC1=O` (stereo not shown) [VI, 6-acetylamino-6-(2-chlorophenyl)-2-cyclohexen-1-one], for which the figures for the minimal effective concentration in the test with DAMI cells (setting [5]) and in the test on CMK cells (setting [6]) were 12 µM and 6 µM, respectively. Further, in test [1] (N-acylated derivative), the “thrombopoeitic activity compared with 5,6-dehydronorketamine” value is reported as “even more active”.

Consider `O=C(CCCC[C@@H]1SC[C@@H]2NC(=O)N[C@@H]21)NC1(c2ccccc2Cl)CCC=CC1=O` (stereo partly shown) [VII, 6-biotinoylamino-6-(2-chlorophenyl)-2-cyclohexen-1-one], for which the values for the minimal effective concentration in the test with DAMI cells (setting [5]) and with CMK cells (setting [6]) were 25 µM and 12 µM, respectively.

For the compound `Cc1nnc2n1-c1sc(CCC(=O)N3CCOCC3)cc1C(c1ccccc1Cl)=NC2` [WEB 2086, 4-(2-chlorphenyl)-9-methyl-2-[3-(4-morpholinyl)-3-propanon-1-yl]6H-thieno[3,2,f][1,2,4]triazolo[4,3,a,][1,4] diazepin, reference compound], the minimal effective concentration with DAMI cells (setting [5]), with DAMI cells (setting [7]) and with CMK cells (setting [6]) was more than 200 µM in each case. In test [2], the platelet counts is 140,000-190,000 /µl.

In the case of `O=C1C=CCCC1` [cyclohexenone, reference compound], the minimal effective concentration in the test on DAMI cells (setting [5]) and in the test on CMK cells (setting [6]) was 200 µM each time.

Regarding `CNC1(c2ccccc2Cl)CCCCC1=O` (stereo not shown) [ketamine (III), 2-(2-chlorophenyl)-2-(methylamino) cyclohexanone, reference compound], the minimal effective concentration with DAMI cells (setting [5]) and with CMK cells (setting [6]) was more than 200 µM each time. Further, the “thrombopoeitic activity in various assays” value in test [1] is more than 200 µM.
